Measured values reported in US20090155266A1, “Methods and Compositions Relating to Vascular Endothelial Growth Factor and TH2 Mediated Inflammatory Diseases” (YALE UNIVERSITY, priority 2004, published 2009).

Legend:
[1] = tested on: OVA sensitized and challenged wild type mice; test: OVA sensitization and challenge model of Th2 inflammation; assay type: in vivo; conditions: for antigen-stimulated IL-4 production / antigen-stimulated IL-13 production: BAL from OVA sensitized and challenged mice, antagonist IP; for onset of a Th2 mediated inflammatory disease: disease induced by allergen (ovalbumin sensitization) or genetic predisposition, summary statement; for airways hyperresponsiveness (AHR), methacholine responsiveness / BAL and tissue inflammation: wild type mice sensitized and challenged with OVA, SU1498 10 mg/kg/day or VEGF TrapR1R2 25 mg/kg, IP; for BAL and tissue inflammation: starting the day before first OVA dose
Description: The OVA model was undertaken in wild type mice as previously described (Wang et al., 2000). Sensitization and challenge were undertaken in the presence and absence of the VEGF receptor antagonist SU1498 (10 mg/kg/day) or VEGF TrapR1R2 (Regeneron, Inc., Tarrytown, N.Y.) (25 mg/kg) which were given via an intraperitoneal (IP) route starting the day before the first dose of OVA. The VEGF TrapR1R2 is a fusion protein comprised of the extracellular domains of VEGFR1 and VEGFR2 coupled to the Fc-portion of IgG that binds VEGF-A, but not VEGF-B or VEGF-C (Cursiefen et al., 2004). T-bet null mutant mice (Finotto et al., 2002) were obtained from the Jackson Laboratories (Bar Harbor, Me.). At 6 weeks of age they were randomized to SU1498 or control vehicle as described above. Two weeks later phenotypic characterization was undertaken as described above.

VEGF-A = target: T1, VEGF-A (Homo sapiens, UniProt P15692); conditions: cited from earlier work
T1 sequence (P15692 207-320 limits assumed): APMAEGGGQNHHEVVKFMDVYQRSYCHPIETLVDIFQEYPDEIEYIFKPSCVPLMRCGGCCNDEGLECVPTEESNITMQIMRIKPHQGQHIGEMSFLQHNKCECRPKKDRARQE

VEGF-B = target: T2, VEGF-B (Homo sapiens, UniProt P49765); conditions: cited from earlier work
T2 sequence (P49765 22-136 limits assumed): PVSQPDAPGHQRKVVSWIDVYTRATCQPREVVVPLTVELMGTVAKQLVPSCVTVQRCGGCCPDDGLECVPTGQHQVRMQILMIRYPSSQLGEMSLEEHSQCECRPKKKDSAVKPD

VEGF-C = target: T3, VEGF-C (Homo sapiens, UniProt P49767); conditions: cited from earlier work
T3 sequence (P49767 112-227 limits assumed): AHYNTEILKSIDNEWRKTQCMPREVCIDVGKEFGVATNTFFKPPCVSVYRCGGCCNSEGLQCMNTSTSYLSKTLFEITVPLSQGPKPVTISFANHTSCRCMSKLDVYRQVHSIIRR

With `CC(C)c1cc(/C=C(\C#N)C(=O)NCCCc2ccccc2)cc(C(C)C)c1O` [SU1498, reference compound] the “antigen-stimulated IL-4 production” value [1] was “markedly decreased”, the “antigen-stimulated IL-13 production” value [1] was “markedly decreased” and the “onset of a Th2 mediated inflammatory disease” value [1] was “prevented onset”. For the same compound, the “airways hyperresponsiveness (AHR), methacholine responsiveness” value [1] was “markedly decreased” and the “BAL and tissue inflammation” value [1] was “markedly decreased”.

With “VEGF TrapR1R2: fusion protein comprised of the extracellular domains of VEGFR1 and VEGFR2 coupled to the Fc-portion of IgG (Regeneron)” the “antigen-stimulated IL-4 production” value [1] was “markedly decreased”, the “antigen-stimulated IL-13 production” value [1] was “markedly decreased” and the “onset of a Th2 mediated inflammatory disease” value [1] was “prevented onset”. For the same compound, the “airways hyperresponsiveness (AHR), methacholine responsiveness” value [1] was “abrogates”, the “BAL and tissue inflammation” value [1] was “abrogates” and the “binding to VEGF-A” value (VEGF-A) was “binds”. For the same compound, the “binding to VEGF-B” value (VEGF-B) was “not” and the “binding to VEGF-C” value (VEGF-C) was “not”.
